Data published in a melting point compilation (Tetko et al.; mined from patent text by program, amines drawn as free bases though some values may be those of a salt).

| SMILES | melting point [°C] |
| --- | --- |
| O=Cc1ccc(OS(=O)(=O)C(F)(F)F)cc1Cl | 125 to 127 |
| C=C(C)C(C)n1c(=O)c(C(C)C)cc2c3c(cc(C)c21)C(C)C(C)(CI)O3 (centres undefined) | 191 to 192 |
| CN(CCO)CCn1nc2c3c(c(NCCNCCO)ccc31)C(=O)c1c(O)ccc(O)c1-2 | 191 to 194 |
| C[C@@H](Nc1ncnc2[nH]c(-c3ccc(CN4CCNCC4)cc3)cc12)c1ccccc1 | 240 to 242 |
| Clc1ccccc1-c1nc(-c2ccc3c(c2)OCO3)c(-c2ccc3c(c2)OCO3)[nH]1 | 168 to 170 |
| C#Cc1cc(Nc2ncnc3cnc(NC(=O)CP(=O)(OCC)OCC)cc23)ccc1F | 103 to 106 |
| c1cnc2[nH]cc(CN3CCc4ccc(-c5ccsc5)cc4C3)c2c1 | 228 to 230 |

Now from value to molecule:

| melting point [°C] | SMILES |
| --- | --- |
| 232 to 233 | O=C1c2cccc3c([N+](=O)[O-])c(Br)cc(c23)C(=O)N1O |
| 50.5 to 52.5 | CCOC(=O)CCc1ccc(C(=O)Cc2ccccc2)cc1 |
| 195 to 198 | COc1ccc(-n2nc(Sc3ccc(C#N)cc3)c(C)c(C#N)c2=O)cc1 |
| 100 to 101 | Cc1cc(F)c(Br)cc1CC(=O)O |
| 57 to 62 | Oc1ccc(CC2CC2(Cl)Cl)cc1 (centres undefined) |
| 111 to 116 | Cn1nc(-c2ncc(Cl)cc2F)c(C=O)c1OC(F)F |
| 102 to 106 | Cn1c2ccccc2c2cc(CN3CCOCC3)sc21 |
